This note sets out measurements from ChEMBL document CHEMBL1938343, “Lead optimisation of selective non-zinc binding inhibitors of MMP13. Part 2” (Bioorg Med Chem Lett, 2012).

The nature of data set [1]: Half life in rat at 2 mg/kg, iv. Type of data set: ADME, organism-based. Also on record: dose 2 mg/kg, route intravenous. The note with it: in vivo.
Data set [2] concerns the target T1, A disintegrin and metalloproteinase with thrombospondin motifs 5 (Homo sapiens) (UniProt Q9UNA0).
T1 sequence (whole entry): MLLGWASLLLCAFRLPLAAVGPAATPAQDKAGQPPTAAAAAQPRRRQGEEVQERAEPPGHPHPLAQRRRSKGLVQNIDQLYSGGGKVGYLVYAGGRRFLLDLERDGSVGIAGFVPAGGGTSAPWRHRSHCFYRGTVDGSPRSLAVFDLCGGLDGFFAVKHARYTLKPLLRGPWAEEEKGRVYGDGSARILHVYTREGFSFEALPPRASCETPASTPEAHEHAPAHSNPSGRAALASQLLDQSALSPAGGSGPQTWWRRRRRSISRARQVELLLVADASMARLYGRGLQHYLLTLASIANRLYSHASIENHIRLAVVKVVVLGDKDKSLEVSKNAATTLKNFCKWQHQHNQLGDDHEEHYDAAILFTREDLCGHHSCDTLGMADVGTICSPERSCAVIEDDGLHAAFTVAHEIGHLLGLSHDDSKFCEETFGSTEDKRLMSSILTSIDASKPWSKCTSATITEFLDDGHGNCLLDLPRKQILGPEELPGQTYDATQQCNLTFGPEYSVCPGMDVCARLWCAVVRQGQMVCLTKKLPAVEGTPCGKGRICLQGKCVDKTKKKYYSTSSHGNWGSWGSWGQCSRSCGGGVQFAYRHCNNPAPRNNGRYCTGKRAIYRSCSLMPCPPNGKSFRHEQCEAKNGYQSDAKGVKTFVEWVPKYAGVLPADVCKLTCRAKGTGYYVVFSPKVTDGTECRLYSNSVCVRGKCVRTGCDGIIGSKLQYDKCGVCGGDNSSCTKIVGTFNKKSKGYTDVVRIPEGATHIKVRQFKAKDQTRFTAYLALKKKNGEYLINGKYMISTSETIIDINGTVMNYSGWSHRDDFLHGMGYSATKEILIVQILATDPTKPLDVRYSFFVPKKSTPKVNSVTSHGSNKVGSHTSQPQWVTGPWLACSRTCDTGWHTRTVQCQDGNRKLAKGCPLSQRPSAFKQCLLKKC
Put plainly: Inhibition of ADAM-TS5 using dimethoxyfluorescein-Ser-Pro-Leu-Ala-Gln-Ala- Val-Arg-ser-Ser-Arg-Cys-fluorescein as substrate.

Data set [3] has as its target Matrix metalloproteinase-9 (Homo sapiens, UniProt P14780). Put plainly: Inhibition of MMP9 using Mca-Pro-cyclohexyl-Ala-Gly-Nva-His-Ala- Dap(Dnp)-NH2 as substrate by fluorometric analysis.
A short description of data set [4]: Fraction unbound in human. The class given is ADME, organism-based. To be noted: in vivo.

Chain of Matrix metalloproteinase-9 (P14780 whole entry): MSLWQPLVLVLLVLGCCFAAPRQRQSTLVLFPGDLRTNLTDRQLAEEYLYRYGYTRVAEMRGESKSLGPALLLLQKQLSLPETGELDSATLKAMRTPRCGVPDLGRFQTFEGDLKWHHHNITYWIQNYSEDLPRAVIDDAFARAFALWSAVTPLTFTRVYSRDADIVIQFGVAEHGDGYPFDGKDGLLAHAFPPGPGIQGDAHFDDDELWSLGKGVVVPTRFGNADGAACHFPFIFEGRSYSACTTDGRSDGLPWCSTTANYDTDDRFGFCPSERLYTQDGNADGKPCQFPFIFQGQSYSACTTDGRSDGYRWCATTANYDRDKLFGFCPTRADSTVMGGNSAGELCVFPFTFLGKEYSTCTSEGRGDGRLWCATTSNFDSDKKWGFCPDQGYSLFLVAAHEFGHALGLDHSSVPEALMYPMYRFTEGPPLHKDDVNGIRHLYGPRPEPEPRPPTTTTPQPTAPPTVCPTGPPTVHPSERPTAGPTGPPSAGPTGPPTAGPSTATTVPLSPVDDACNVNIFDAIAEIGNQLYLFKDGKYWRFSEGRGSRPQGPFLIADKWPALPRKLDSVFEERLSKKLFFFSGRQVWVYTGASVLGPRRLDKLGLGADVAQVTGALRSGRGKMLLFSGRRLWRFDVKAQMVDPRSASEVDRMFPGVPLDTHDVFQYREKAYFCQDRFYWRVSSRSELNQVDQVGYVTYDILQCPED

In turn, `CN1CCC(NC(=O)c2ccc(Oc3ccc(C#C[C@]4(O)CN5CCC4CC5)cc3)cc2)CC1` showed a half-life in data set [1] of 10.1 h. The compound also had an INH in data set [2] greater than 10 µM. For the same compound, the negative logarithm of the IC50 (pIC50) in data set [3] is less than 5. In data set [3] (read-out: IC50), the IC50 is greater than 10 µM. For the same compound, the fraction unbound in data set [4] amounted to 0.41.

In general, half-life refers to the time in which the quantity being followed falls by half. Lower therefore signals rapid decline. As a reminder, the pIC50 is −log10 of the IC50, conventionally taken in molar units. A word on the IC50: it is the concentration that gives 50% inhibition. As usually defined, the fraction unbound is the share of the substance not bound to proteins or other matrix. Lower therefore signals little free substance.
